Data from PubChem BioAssay AID330 (DTP/NCI, 2004).
Where “and” joins values, the source holds several entries; their conditions need not be identical. Equal values may be shown once. Toxic doses and inconclusive results are not listed. Square brackets hold non-standard residues; d marks the D form. Peptide text beside a SMILES is read from it. * marks the point of attachment. Cbz = O=C(OCc1ccccc1)*; Nva = CCC[CH](N)C(=O)O

Test system: P388 leukemia ip, CD2F1 mice, survival T/C
Test: NCI In Vivo Anticancer Drug Screen. Data for tumor model P388 Leukemia (intraperitoneal) in CD2F1 (CDF1) mice
Conditions: endpoint: median survival time, higher = longer survival
Method in brief: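 Mice carrying the transplanted tumor received test compound or vehicle. Survival was recorded in each group, and the value is the treated-group measurement divided by that of the vehicle-treated control group.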

[1] = dose: 12.5 mg/kg/injection, schedule: Q01DX009 (ip), vehicle: Klucel (hydroxypropylcellulose) (HPC)
[2] = dose: 50.0 mg/kg/injection, schedule: Q01DX009 (ip), vehicle: Klucel (hydroxypropylcellulose) (HPC)
[3] = dose: 50.0 mg/kg/injection, schedule: Q01DX009 (ip), vehicle: saline with Tween-80
[4] = dose: 50.0 mg/kg/injection, schedule: Q01DX009 (ip), vehicle: saline
[5] = dose: 100.0 mg/kg/injection, schedule: Q01DX009 (ip), vehicle: saline with Tween-80
[6] = dose: 100.0 mg/kg/injection, schedule: Q01DX009 (ip), vehicle: saline
[7] = dose: 120.0 mg/kg/injection, schedule: Q01DX005 (ip), vehicle: Klucel (hydroxypropylcellulose) (HPC)
[8] = dose: 200.0 mg/kg/injection, schedule: Q01DX009 (ip), vehicle: Klucel (hydroxypropylcellulose) (HPC)
[9] = dose: 200.0 mg/kg/injection, schedule: Q01DX009 (ip), vehicle: saline with Tween-80
[10] = dose: 100.0 mg/kg/injection, schedule: Q01DX009 (ip), vehicle: Klucel (hydroxypropylcellulose) (HPC)
[11] = dose: 50.0 mg/kg/injection, schedule: Q01DX005 (ip), vehicle: Klucel (hydroxypropylcellulose) (HPC)
[12] = dose: 100.0 mg/kg/injection, schedule: Q01DX005 (ip), vehicle: Klucel (hydroxypropylcellulose) (HPC)
[13] = dose: 200.0 mg/kg/injection, schedule: Q01DX005 (ip), vehicle: Klucel (hydroxypropylcellulose) (HPC)
[14] = dose: 50.0 mg/kg/injection, schedule: Q01DX001 (ip), vehicle: Klucel (hydroxypropylcellulose) (HPC)
[15] = dose: 100.0 mg/kg/injection, schedule: Q01DX001 (ip), vehicle: Klucel (hydroxypropylcellulose) (HPC)
[16] = dose: 200.0 mg/kg/injection, schedule: Q01DX001 (ip), vehicle: Klucel (hydroxypropylcellulose) (HPC)
[17] = dose: 25.0 mg/kg/injection, schedule: Q01DX009 (ip), vehicle: saline with Tween-80

## OC(CBr)C(O)C(O)C(O)CBr (stereo not drawn)
[1]
  T/C: 106 % of control
dose: 36.0 mg/kg/injection, schedule: Q01DX005 (ip), vehicle: Klucel (hydroxypropylcellulose) (HPC)
  T/C: 107 % of control and 109 % of control
[2]
  T/C: 115 % of control
dose: 50.0 mg/kg/injection, schedule: Q01DX009 (ip), vehicle: distilled water + Tween-80
  T/C: 114 % of control
[3]
  T/C: 107 % of control
[4]
  T/C: 96 % of control
dose: 50.0 mg/kg/injection, schedule: Q01DX010 (ip), vehicle: saline
  T/C: 109 % of control
dose: 53.0 mg/kg/injection, schedule: Q01DX005 (ip), vehicle: Klucel (hydroxypropylcellulose) (HPC)
  T/C: 120 % of control
dose: 80.0 mg/kg/injection, schedule: Q01DX005 (ip), vehicle: Klucel (hydroxypropylcellulose) (HPC)
  T/C: 173 % of control
dose: 100.0 mg/kg/injection, schedule: Q01DX009 (ip), vehicle: distilled water + Tween-80
  T/C: 124 % of control
[5]
  T/C: 114 % of control
[6]
  T/C: 123 % of control
dose: 100.0 mg/kg/injection, schedule: Q01DX010 (ip), vehicle: saline
  T/C: 109 % of control
[7]
  T/C: 170 % of control and 207 % of control
dose: 180.0 mg/kg/injection, schedule: Q01DX005 (ip), vehicle: Klucel (hydroxypropylcellulose) (HPC)
  T/C: 163 % of control and 181 % of control
[8]
  T/C: 107 % of control
dose: 200.0 mg/kg/injection, schedule: Q01DX009 (ip), vehicle: distilled water + Tween-80
  T/C: 122 % of control
[9]
  T/C: 113 % of control
dose: 200.0 mg/kg/injection, schedule: Q01DX010 (ip), vehicle: saline
  T/C: 109 % of control
dose: 200.0 mg/kg/injection, schedule: Q04DX003 (ip), vehicle: Klucel (hydroxypropylcellulose) (HPC)
  T/C: 190 % of control
dose: 300.0 mg/kg/injection, schedule: Q04DX003 (ip), vehicle: Klucel (hydroxypropylcellulose) (HPC)
  T/C: 200 % of control
dose: 400.0 mg/kg/injection, schedule: Q01DX009 (ip), vehicle: Klucel (hydroxypropylcellulose) (HPC)
  T/C: 93 % of control
dose: 400.0 mg/kg/injection, schedule: Q01DX009 (ip), vehicle: distilled water + Tween-80
  T/C: 86 % of control
dose: 400.0 mg/kg/injection, schedule: Q01DX009 (ip), vehicle: saline with Tween-80
  T/C: 117 % of control
dose: 800.0 mg/kg/injection, schedule: Q01DX009 (ip), vehicle: saline with Tween-80
  T/C: 120 % of control

## CC(C)CC(NC(=O)OC(C)(C)C)C(=O)CBr (stereo not drawn)
dose: 12.5 mg/kg/injection, schedule: Q01DX001 (ip), vehicle: saline with Tween-80
  T/C: 105 % of control
dose: 25.0 mg/kg/injection, schedule: Q01DX001 (ip), vehicle: saline with Tween-80
  T/C: 105 % of control
dose: 50.0 mg/kg/injection, schedule: Q01DX001 (ip), vehicle: saline with Tween-80
  T/C: 96 % of control

## COc1cc(C2OC(=O)c3ccccc3S2)ccc1O (stereo not drawn)
dose: 6.25 mg/kg/injection, schedule: Q01DX009 (ip), vehicle: Klucel (hydroxypropylcellulose) (HPC)
  T/C: 114 % of control
[1]
  T/C: 110 % of control and 119 % of control
dose: 25.0 mg/kg/injection, schedule: Q01DX009 (ip), vehicle: Klucel (hydroxypropylcellulose) (HPC)
  T/C: 114 % of control and 120 % of control
[2]
  T/C: 106 % of control
[10]
  T/C: 118 % of control

## CCCC(NC(=O)OCc1ccccc1)C(=O)NC(Cc1ccc(O)cc1)C(N)=O (stereo not drawn) (Cbz-[Nva]-Tyr-NH2; configuration not given here)
[11]
  T/C: 92 % of control
[12]
  T/C: 100 % of control
[13]
  T/C: 88 % of control

## COC(=O)c1ccccc1N=Nc1ccc(N(CCCl)CCCl)cc1
[14]
  T/C: 112 % of control
[15]
  T/C: 108 % of control
[16]
  T/C: 113 % of control

## O=[N+]([O-])CC1CCCCC1O (stereo not drawn)
dose: 6.25 mg/kg/injection, schedule: Q01DX009 (ip), vehicle: saline with Tween-80
  T/C: 100 % of control
dose: 12.5 mg/kg/injection, schedule: Q01DX009 (ip), vehicle: saline with Tween-80
  T/C: 100 % of control
[17]
  T/C: 90 % of control

## NNc1nnnn1-c1ccccc1
[14]
  T/C: 100 % of control
[15]
  T/C: 104 % of control
[16]
  T/C: 102 % of control

## Cc1oc2c(c(=O)c1C)CN(Cc1ccccc1)CC2
dose: 100.0 mg/kg/injection, schedule: Q01DX001 (ip), vehicle: saline with Tween-80
  T/C: 100 % of control
dose: 200.0 mg/kg/injection, schedule: Q01DX001 (ip), vehicle: saline with Tween-80
  T/C: 100 % of control
dose: 400.0 mg/kg/injection, schedule: Q01DX001 (ip), vehicle: saline with Tween-80
  T/C: 99 % of control

## COc1ccc(C2=C(Cl)C(=O)N(c3ccc(OC)cc3OC)C(=O)C2(Cl)Cl)cc1
dose: 100.0 mg/kg/injection, schedule: Q04DX002 (ip), vehicle: Klucel (hydroxypropylcellulose) (HPC)
  T/C: 98 % of control
dose: 200.0 mg/kg/injection, schedule: Q04DX002 (ip), vehicle: Klucel (hydroxypropylcellulose) (HPC)
  T/C: 101 % of control
dose: 400.0 mg/kg/injection, schedule: Q04DX002 (ip), vehicle: Klucel (hydroxypropylcellulose) (HPC)
  T/C: 117 % of control

## Nc1ccc(NS(=O)(=O)c2cccs2)c(O)c1
[2]
  T/C: 97 % of control
[10]
  T/C: 94 % of control
[8]
  T/C: 105 % of control

## Cc1cc(NC(=O)c2ccc(NC(=O)c3ccc(N)cc3)cc2)ccc1N=Nc1ccc2c(O)c(N=Nc3ccc4cc(S(=O)(=O)O)ccc4c3)c(S(=O)(=O)O)cc2c1
dose: 50.0 mg/kg/injection, schedule: Q01DX005 (ip), vehicle: saline with Tween-80
  T/C: 94 % of control
dose: 100.0 mg/kg/injection, schedule: Q01DX005 (ip), vehicle: saline with Tween-80
  T/C: 103 % of control
dose: 200.0 mg/kg/injection, schedule: Q01DX005 (ip), vehicle: saline with Tween-80
  T/C: 94 % of control

## CCOC(=O)c1cnc(N)nc1CCC(=O)O
dose: 37.5 mg/kg/injection, schedule: Q01DX009 (ip), vehicle: saline with Tween-80
  T/C: 107 % of control
dose: 75.0 mg/kg/injection, schedule: Q01DX009 (ip), vehicle: saline with Tween-80
  T/C: 102 % of control
dose: 150.0 mg/kg/injection, schedule: Q01DX009 (ip), vehicle: saline with Tween-80
  T/C: 107 % of control

## COC(=O)c1nc(N)nc(C(=O)OC)c1C(=O)/C=C/c1ccccc1
dose: 60.0 mg/kg/injection, schedule: Q01DX005 (ip), vehicle: saline with Tween-80
  T/C: 100 % of control
dose: 120.0 mg/kg/injection, schedule: Q01DX005 (ip), vehicle: saline with Tween-80
  T/C: 98 % of control

## COC(=O)c1ccc(N=NN(C)C)cc1
dose: 25.0 mg/kg/injection, schedule: Q01DX009 (ip), vehicle: saline
  T/C: 100 % of control and 97 % of control
dose: 25.0 mg/kg/injection, schedule: Q01DX009 (ip), vehicle: suspension in saline
  T/C: 103 % of control
[4]
  T/C: 113 % of control and 92 % of control
dose: 50.0 mg/kg/injection, schedule: Q01DX009 (ip), vehicle: suspension in saline
  T/C: 91 % of control
[6]
  T/C: 103 % of control and 94 % of control
dose: 200.0 mg/kg/injection, schedule: Q01DX009 (ip), vehicle: saline
  T/C: 108 % of control
dose: 200.0 mg/kg/injection, schedule: Q01DX009 (ip), vehicle: suspension in saline
  T/C: 101 % of control

## O=C(/C=C/c1ccccc1O)/C=C/c1ccccc1O
dose: 8.0 mg/kg/injection, schedule: Q01DX009 (ip), vehicle: saline with Tween-80
  T/C: 118 % of control
dose: 12.0 mg/kg/injection, schedule: Q01DX009 (ip), vehicle: saline with Tween-80
  T/C: 118 % of control
dose: 18.0 mg/kg/injection, schedule: Q01DX009 (ip), vehicle: saline with Tween-80
  T/C: 113 % of control
[17]
  T/C: 115 % of control

## C=CCC(N)C(=O)O (stereo not drawn)
dose: 50.0 mg/kg/injection, schedule: Q01DX005 (ip), vehicle: saline
  T/C: 103 % of control
dose: 100.0 mg/kg/injection, schedule: Q01DX005 (ip), vehicle: saline
  T/C: 97 % of control

## Fc1ccc(N2C(c3ccccc3)=N[C@@H](N3CCOCC3)[C@@H]2N2CCOCC2)cc1
[11]
  T/C: 102 % of control
[12]
  T/C: 100 % of control
[13]
  T/C: 93 % of control

## COc1ccccc1N1CCN(c2nc(NC(=O)c3ccccc3)nn2C)CC1
dose: 60.0 mg/kg/injection, schedule: Q01DX005 (ip), vehicle: Klucel (hydroxypropylcellulose) (HPC)
  T/C: 112 % of control
[7]
  T/C: 87 % of control

## CCOC(=O)c1ccc(-n2c(C)nc3cc(Cl)ccc3c2=O)cc1
[3]
  T/C: 104 % of control
[5]
  T/C: 98 % of control
[9]
  T/C: 98 % of control
